The test deals with T1, human PAD4 (Homo sapiens, UniProt Q9UM07).
T1 construct: human PAD4 (NM_012387), A2-P663, was PCR amplified; His-SUMO (N, cleaved yes); made in house; host or cells: E. coli BL21(DE3)
Kind of test: In vitro PAD4 BAEE biochemical assay. As to conditions: BAEE substrate 3 mM, 5 nM PAD4, 2 mM calcium chloride; geometric mean of multiple experiments. Summed up:
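Ammonia produced by BAEE deimination (3 mM substrate, 2 h, 25 °C) was read as fluorescent isoindole after o-phthalaldehyde/DTT derivatization, ex 405 nm/em 535 nm. Human PAD4 at 5 nM final, 2 mM calcium, pH 7.6 MOPS; compound preincubated 30 min. IC50s, normalized to BB-Cl-Amidine and DMSO controls, were geometric-mean averaged.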

The structures appear in SMILES notation.

T1 sequence (Q9UM07 2-663): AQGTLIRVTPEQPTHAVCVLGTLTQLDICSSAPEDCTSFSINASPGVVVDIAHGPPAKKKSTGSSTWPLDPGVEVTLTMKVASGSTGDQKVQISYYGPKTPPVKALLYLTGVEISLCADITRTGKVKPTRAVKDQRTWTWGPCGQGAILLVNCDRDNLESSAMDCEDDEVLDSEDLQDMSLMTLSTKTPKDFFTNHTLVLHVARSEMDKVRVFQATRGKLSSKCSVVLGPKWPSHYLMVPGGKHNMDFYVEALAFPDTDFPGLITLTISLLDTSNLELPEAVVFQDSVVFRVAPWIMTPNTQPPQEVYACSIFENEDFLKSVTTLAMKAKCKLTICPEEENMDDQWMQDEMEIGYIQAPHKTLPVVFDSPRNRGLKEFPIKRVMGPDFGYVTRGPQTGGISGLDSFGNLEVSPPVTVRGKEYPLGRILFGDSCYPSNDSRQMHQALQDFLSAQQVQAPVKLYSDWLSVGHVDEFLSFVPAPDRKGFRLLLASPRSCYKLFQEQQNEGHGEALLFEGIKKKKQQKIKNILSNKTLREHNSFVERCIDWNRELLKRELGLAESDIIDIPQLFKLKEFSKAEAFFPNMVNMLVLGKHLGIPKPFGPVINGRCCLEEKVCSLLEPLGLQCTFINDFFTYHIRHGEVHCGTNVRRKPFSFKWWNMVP

By IC50 is commonly meant the concentration at which inhibition is half-maximal. For `C[C@H]1NC(=O)C(C)(C)CCCCCCn2c(-c3nc4cc(C(=O)N5[C@H]6CC[C@@H]5[C@H](N)C6)c(F)cc4n3C3CC3)cc3ccc1nc32` [Example 488, (11~{R})-17-[5-[(1~ {R},2~{R},4~{S})-2-amino-7-azabicyclo [2.2.1]heptane-7-carbonyl]-1-cyclopropyl-6-fluoro-benzimidazol-2-yl]-8,8,11-trimethyl-1,10,19-triazatricyclo [10.5.2.0^{15,18}]nonadeca-12(19),13,15(18),16-tetraen-9-one], the IC50 turned out to be 64 nM.

In the case of `COc1cc(C(=O)N2C[C@H](N)[C@@H]3CC[C@H]2C3)cc2nc(-c3cc4ccc5nc4n3CCCCCc3cc(F)cc(F)c3C(=O)N[C@@H]5C)n(C)c12` [Example 935, (2~{R})-17-[5-[(1~{S),4~{R},5~ {R})-4-amino-2-azabicyclo[3.2.1]octane-2-carbonyl]-7-methoxy-1-methyl-benzimidazol-2-yl]-6,8-difluoro-2-methyl-3,16,22-triazatetracyclo[14.5.2.0^ {5,10}.0^{19,23}]tricosa-1(21),5(10),6,8,17,19,22-heptaen-4-one], the IC50 came out at 29 nM.

For `COc1cc(C(=O)N2CC[C@@H]3CCN[C@@H]3C2)cc2nc(-c3cc4ccc5nc4n3CCCCCCC(C)(C)C(=O)N[C@@H]5C)n(C)c12` [Example 81, (11~{R})-17-[5-[(3~{a}~{S},7~{a}~{S})-1,2,3,3~{a},4,5,7,7~{a}-octahydropyrrolo[2,3-c]pyridine-6-carbonyl]-7-methoxy-1-methyl-benzimidazol-2-yl]-8,8,11-trimethyl-1,10,19-triazatricyclo[10.5.2.0^{15,18}]nonadeca-12(19),13,15(18),16-tetraen-9-one], the IC50 turned out to be 505 nM.

Regarding `COc1cc(C(=O)N2C[C@H]3CC[C@@H]2[C@@H]3N)cc2nc(-c3cc4ccc5nc4n3CCCCCC[C@@](C)(C(F)(F)F)C(=O)N[C@@H]5C)n(C)c12` [Example 722, (8~{R},11~{R})-17-[5-[(1~{R},4~{R},7~{R})-7-amino-2-azabicyclo [2.2.1]heptane-2-carbonyl]-7-methoxy-1-methyl-benzimidazol-2-yl]-8,11-dimethyl-8-(trifluoromethyl)-1,10,19-triazatricyclo [10.5.2.0^{15,18}]nonadeca-12(19),13,15(18),16-tetraen-9-one], the IC50 came to 174 nM.

For `COc1cc(C(=O)N2[C@H]3CC[C@@H]2[C@H](N)C3)cc2nc(-c3cc4ccc5nc4n3CCC3(CC3)COCCC(=O)N[C@@H]5C)c(C)n12` [Example 331, (11~{R})-17-[7-[(1~{R},2~{R},4~{S})-2-amino-7-azabicyclo[2.2.1]heptane-7-carbonyl]-5-methoxy-3-methyl-imidazo[1,2-a]pyridin-2-yl]-11-methyl-spiro[6-oxa-1,10,19-triazatricyclo[10.5.2.0^{15,18}]nonadeca-12(19),13,15(18),16-tetraene-4,1′-cyclopropane]-9-one], the IC50 worked out at 69 nM.

`CO[C@@H]1CCN(C(=O)c2cc(F)c3c(c2)nc(-c2cc4ccc5nc4n2CCCCCCC(c2ccccn2)C(=O)N[C@@H]5C)n3C2CC2)C[C@@H]1N` (some centres unmarked) [Example 871, (11~{R})-17-[5-[(3~{S), 4~{R})-3-amino-4-methoxy-piperidine-1-carbonyl]-1-cyclopropyl-7-fluoro-benzimidazol-2-yl]-11-methyl-8-(2-pyridyl)-1,10,19-triazatricyclo[10.5.2.0^{15,18}] nonadeca-12(19), 13,15(18),16-tetraen-9-one]: the IC50 was 31 nM.

Regarding `C[C@H]1NC(=O)c2c(C3CC3)cc(Cl)nc2CCCCCn2c(-c3nc4cc(C(=O)N5C[C@H](N)[C@@H]6CC[C@H]5C6)cc(F)c4n3C3CC3)cc3ccc1nc32` [Example 911, (2~{R})-17-[5-[(1~{S},4~{R}, 5~{R})-4-amino-2-azabicyclo[3.2.1]octane-2-carbonyl]-1-cyclopropyl-7-fluoro-benzimidazol-2-yl]-8-chloro-6-cyclopropyl-2-methyl-3,9,16,22-tetrazatetracyclo[14.5.2.0^ {5,10}.0^{19,23}]tricosa-1(22),5(10),6,8,17,19(23),20-heptaen-4-one], the IC50 was 61 nM.

As for `COc1cc(C(=O)N2CCC[C@@H](N)C2)cc2nc(-c3cc4ccc5nc4n3CCCCC[C@H]3C[C@@H]3C(=O)N[C@@H]5C)n(C)c12` [Example 158, (2~{R},5~{S},7~{S})-14-[5-[(3~{R})-3-aminopiperidine-1-carbonyl]-7-methoxy-1-methyl-benzimidazol-2-yl]-2-methyl-3,13,19-triazatetracyclo[11.5.2.0^{5,7}.0^{16,20}] icosa-1(19),14,16(20),17-tetraen-4-one], the IC50 turned out to be 241 nM.

Consider `COc1cc(C(=O)N2C[C@H]3C[C@H]3[C@@H](N)C2)cc2nc(-c3cc4ccc5nc4n3CCCCCCC(C)(C)C(=O)N[C@@H]5C)n(C)c12` [Example 206, (11~{R})-17-[5-[(1~{S},5~{R},6~{R})-5-amino-3-azabicyclo[4.1.0]heptane-3-carbonyl]-7-methoxy-1-methyl-benzimidazol-2-yl]-8,8,11-trimethyl-1,10,19-triazatricyclo[10.5.2.0^{15,18}]nonadeca-12(19),13,15(18),16-tetraen-9-one], for which the IC50 is 850 nM.

As for `COc1cc(C(=O)N2CC[C@H]3CCN[C@H]3C2)cc2nc(-c3cc4ccc5nc4n3CCCCC[C@@H]3C[C@H]3C(=O)N[C@@H]5C)n(C)c12` [Example 531, (2~{R},5~{R},7~{R})-14-[5-[(3~{a}-{R},7~ {a}~{R})-1,2,3,3~ {a},4,5,7,7~{a}-octahydropyrrolo[2,3-c]pyridine-6-carbonyl]-7-methoxy-1-methyl-benzimidazol-2-yl]-2-methyl-3,13,19-triazatetracyclo[11.5.2.0^ {5,7}.0^{16,20}]icosa-1(19),14,16(20),17-tetraen-4-one], the IC50 came to 36 nM.

For `CO[C@@H]1CCN(C(=O)c2ccc3c(c2)nc(-c2cc4ccc5nc4n2CCCCCc2cc(Cl)ncc2C(=O)N[C@@H]5C)n3C2CC2)C[C@@H]1N` [Example 652, 17-[5-[(3~{S},4~{R})-3-amino-4-methoxy-piperidine-1-carbonyl]-1-cyclopropyl-benzimidazol-2-yl]-8-chloro-2-methyl-3,7,16,22-tetrazatetracyclo[14.5.2.0^ {5,10}.0^{19,23}] tricosa-1(22),5,7,9,17,19(23), 20-heptaen-4-one], the IC50 came to 42 nM.

As to `COc1cc(C(=O)N2CCC[C@@H](N)C2)cc2nc(-c3cc4ccc5nc4n3C[C@H]3C[C@@H]3CCCC(C)C(=O)N[C@@H]5C)n(C)c12` (some centres unmarked) [Example 166, (3~{S},5~{S},12~{R})-18-[5-[(3~{R})-3-aminopiperidine-1-carbonyl]-7-methoxy-1-methyl-benzimidazol-2-yl]-9,12-dimethyl-1,11,20-triazatetracyclo[11.5.2.0^{3,5}.0^{16,19}] icosa-13(20),14,16(19),17-tetraen-10-one], the IC50 was determined as 49 nM.

For the compound `C[C@H]1NC(=O)c2ccc(Cl)nc2CC[C@H]2C[C@@H]2Cn2c(-c3nc4cc(C(=O)N5C[C@H](N)[C@@H]6CC[C@H]5C6)cc(F)c4n3C3CC3)cc3ccc1nc32` [Example 878, (3~{S},5~{S},16~{R})-22-[5-[(1~{S},4~{R},5~{R})-4-amino-2-azabicyclo[3.2.1]octane-2-carbonyl]-1-cyclopropyl-7-fluoro-benzimidazol-2-yl]-10-chloro-16-methyl-1,9,15,24-tetrazapentacyclo [15.5.2.0^{3,5}.0^ {8,13}.0^{20,23}]tetracosa-8(13),9,11,17(24),18,20(23), 21-heptaen-14-one], the IC50 is 26 nM.

For the compound `C[C@H]1NC(=O)[C@H]2[C@@H](CCCCCn3c(-c4nc5cc(C(=O)N[C@H]6CNCC[C@@H]6F)c(F)cc5n4C4CC4)cc4ccc1nc43)C2(F)F` [Example 392, 1-cyclopropyl-2-[(2~{R},5~{R},7~{R})-6,6-difluoro-2-methyl-4-oxo-3,13,19-triazatetracyclo[11.5.2.0^{5,7}.0^{16,20}]icosa-1(19),14,16(20),17-tetraen-14-yl]-6-fluoro-~{N}-[(3~{S},4~{S})-4-fluoro-3-piperidyl]benzimidazole-5-carboxamide], the IC50 is 22 nM.

Regarding `COC[C@@H]1[C@H](N)CCCN1C(=O)c1cc(OC)c2c(c1)nc(-c1cc3ccc4nc3n1CCCCC[C@@H]1C[C@H]1C(=O)N[C@@H]4C)n2C` [Example 411, (2~{R},5~{R},7~{R})-14-[5-[(2~{S},3~{R})-3-amino-2-(methoxymethyl)piperidine-1-carbonyl]-7-methoxy-1-methyl-benzimidazol-2-yl]-2-methyl-3,13,19-triazatetracyclo[11.5.2.0^{5,7}.0^{16,20}] icosa-1(19),14,16(20),17-tetraen-4-one], the IC50 came to 398 nM.

For `COc1cc(C(=O)N2[C@H]3CC[C@@H]2[C@H](N)C3)cc2nc(-c3cc4ccc5nc4n3CCCCCCC3(CCC3)C(=O)N[C@@H]5C)n(C)c12` [Example 278, (11~{R})-17-[5-[(1~{R},2~{R},4~{S})-2-amino-7-azabicyclo[2.2.1]heptane-7-carbonyl]-7-methoxy-1-methyl-benzimidazol-2-yl]-11-methyl-spiro[1,10,19-triazatricyclo[10.5.2.0^{15,18}]nonadeca-12(19),13,15(18),16-tetraene-8,1′-cyclobutane]-9-one], the IC50 was determined as 47 nM.

Consider `Cc1cncc2c1C(=O)N[C@H](C)c1ccc3cc(-c4nc5cc(C(=O)N[C@H]6CNCC[C@@H]6F)c(F)cc5n4C4CC4)n(c3n1)CCCCC2` [Example 395, 1-cyclopropyl-2-[(2~{R})-2,6-dimethyl-4-oxo-3,8,16,22-tetrazatetracyclo[14.5.2.0^{5,10}.0^{19,23}]tricosa-1(22),5(10),6,8,17,19(23),20-heptaen-17-yl]-6-fluoro-~{N}-[(3~{S},4~{S})-4-fluoro-3-piperidyl]benzimidazole-5-carboxamide], for which the IC50 worked out at 29 nM.

The values are drawn from patent US11976083B2, “Inhibitors of peptidylarginine deiminases” (Gilead Sciences, Inc., priority 2020, dated 2024).
